Assay results: patent US9896522B2, “Solid phase fluorescence labeling reagents and uses thereof” (The Texas A&M University System, priority 2010, dated 2018)

Experiments:
[1] = buffer, pH 2; cited from earlier work
[2] = UV absorbance spectra and molar absorbance; format: physicochemical
Experimental: UV absorbance spectra were recorded using a Beckman 168 photodiode detector during the HILIC separations. The eluent compositions at the time of detection were 26 mM NH4HCO2 74% ACN/water for APTS, 24 mM NH4HCO2 76% ACN/water for trisulfonamide 22 and 10 mM MOPS with 5 mM NaOH in 76% ACN/water for 33. Fluorescence spectra at different pH values were recorded on a Shimadzu RF-5301PC spectrofluorometer. The buffers used are tabulated below: UV absorbance and fluorescence spectra for the quantum yield determinations were acquired using a Varian 100 Bio UV-Vis spectrophotometer and a Varian Cary Eclipse fluorescence spectrometer, respectively. The samples were dissolved in a pH 9 0.1M aqueous sodium bicarbonate buffer.

[3] = fluorescence emission spectra at different pH values; format: physicochemical; conditions: fluorescence emission spectrum
Experimental: It was also developed to have pH-independent fluorescence properties which are important for CE applications. […] The molar absorbance and relative quantum yield values were also determined using Rhodamine 6G as a standard. UV absorbance spectra were recorded using a Beckman 168 photodiode detector during the HILIC separations. The eluent compositions at the time of detection were 26 mM NH4HCO2 74% ACN/water for APTS, 24 mM NH4HCO2 76% ACN/water for trisulfonamide 22 and 10 mM MOPS with 5 mM NaOH in 76% ACN/water for 33. Fluorescence spectra at different pH values were recorded on a Shimadzu RF-5301PC spectrofluorometer.

CCCCCCCCCCCC1(C)OCC(COCCCS(=O)(=O)[O-])O1.[Na+] (stereo not shown) [ALS]
half life [1]: 8 min

Nc1cc(S(=O)(=O)O)c2ccc3c(S(=O)(=O)O)cc(S(=O)(=O)O)c4ccc1c2c43 [APTS, 8-Aminopyrene-1,3,6-trisulfonic acid, reference compound]
share of the maximum absorbance that can be used at 488 nm ([2]; excitation at 488 nm): about 4%

CN(CCS(=O)(=O)O)S(=O)(=O)c1cc(N)c2ccc3c(S(=O)(=O)N(C)CCS(=O)(=O)O)cc(S(=O)(=O)N(C)CCS(=O)(=O)O)c4ccc1c2c34 [compound 22]
shift of λmax ex towards longer wavelength ([2]; relative to APTS): 44 nm | λmax em [3]: 540 nm
